# Assay results taken from patent US20210360924A1, “PLANT OR SEED COATING” (University of Southampton, priority 2017, published 2021).
# Target: G. pallida SER-7 (Globodera pallida, UniProt A0A183BS20, DEL280-286/G462A/H333Q/S454N/S6T/Y334H)
# Assay: Cut head pharyngeal pumping assay, ser-7 (tm1325) expressing Gpa-ser-7
compound,measurement,value
"NCCc1c[nH]c2ccc(O)cc12 [serotonin, 5-hydroxytryptamine]",EC50,3.9 µM
